The data set deals with h-iPSC-derived cardiac myocytes. The experiment in a line: Current clamp action potential recording in paced h-iPSC-derived cardiac myocytes with and without electronic IK1. It is filed as cell-based, human. To be noted: 1 μM; for effect on action potential duration (APD): paced cells with electronic expression of IK1,synthetic; for effect on action potential duration / repolarization / effect on spontaneous activity: paced cells without electronic IK1. The protocol: Commercially-available iPSC-derived cardiac myocytes (iCell Dynamics, WI), were prepared according to manufacturer's instructions. Briefly, ICELL® cardiac myocytes (cryopreserved single-cell suspensions in 1 ml cryovials) were stored in liquid nitrogen. Vials were thawed in a waterbath (37° C.). Cells were washed then rinsed with 1 ml of RT “ICELL® Cardiomyocyte Plating Medium.” An additional 8 ml of plating medium was added and cells mixed with solution by gentile inversion. Cardiocytes were seeded on 15 mm cover-slips coated with 0.01% (w/v) gelatin solution in 12-well plates. Cardiocytes were seeded (20,000-40,000/dish) in 2 ml of RT plating medium, permitting single cell culture, and incubated for 2+ days at 37° C., 7% CO2. Non adherent cells were removed by rinsing with “ICELL® Cardiomyocyte Maintenance Medium.” A further 2 ml of maintenance medium was added. Maintenance medium was changed every 2 days, and cells were used within 1 week.
iPSC-derived cardiocytes were voltage clamped. Currents were recorded using whole-cell clamp at RT. Cells in the recording chamber (300 μl) were continuously perfused with Tyrode. Pipettes fabricated from borosilicate glass (Flaming/Brown horizontal micropipette puller) and tips heat-polished (NARISHIGE® microforge). Pipettes contained (mM): 10 NaCl, 125 KCl, 1 MgSO4, 5 EGTA, 5 ATP (Mg salt), 5 Tris-creatinephosphate, 0.3 GTP, 10 HEPES, pH 7.2. Extracellular solution (mM): 150 NaCl, 5.4 KCl, 0.5 Na2HPO4, 1 MgCl2, 2 CaCl2), 10 glucose, 10 HEPES, pH7.4. After establishing a seal (1-10 Gohm), suction and voltage pulses were used to rupture the patch. Currents were recorded (Axopatch-1D, Molecular Dynamics, CA) and interfaced to a PENTIUM® 4 computer via a DIGIDATA® 1322A (Molecular Dynamics, CA). PCLAMP® 9.0 (Molecular Dynamics, CA) was used to control protocols and data acquisition.
We used an Analog and Digital I/O board PCIe-DAS1602/16 (Measurement Computing Corporation) installed on a on a DELL PRECISION® T7500 workstation with 2 INTEL® XEON® CPU E5520 to transfer the Vm signal to the signal of IK1 current. Source code is in the supplement.
Analysis was performed using PCLAMP® 9 (Molecular Dynamics). Action potential duration (APD) was computed for 50% (APD50) and 90% (APD90) of repolarization in ms. Maximum rate of rise of the AP upstroke was determined (dVm/dtmax) in mV/ms. Resting membrane potential was recorded prior to each AP. For spontaneous APs, the diastolic characteristics were reported for the period of time between complete AP repolarization and the beginning of depolarization in the subsequent AP. Duration, and minimum/mean potentials were computed for the diastolic period.
In order to overcome the lack of IK1 in h-iPSC-derived cardiac myocytes, we developed a variation of the dynamic clamp approach to inject a synthetic version of IK1 (FIG. 1). The center of the system is the isolated h-iPSC-derived cardiac myocyte under whole cell voltage or current clamp. Whole cell clamp is accomplished with a gigaseal under conventional current clamp mode. The membrane voltage of the cardiac myocyte is output from the amplifier and fed into a computer via a digitizer which calculates the inward rectifier current for the membrane potential, according to the equation shown in FIG. 1. The calculated value of IK1,Synthetic is passed through a potentiometer (used to adjust amplitude without sacrificing digital resolution) to scale IK1 and then summed with the standard stimulation input from PCLAMP®. A switch allows rapid changes between conventional current clamp and summed input. When the summed input is switched on, the myocyte receives the sum of two inputs: the standard AP stimulus current plus IK1,Synthetic from the real-time current simulator. The standard voltage clamp electronics can be driven via the summing circuit without modification of conventional voltage clamp and data recording with only minor software selection changes of input/output channels. […]

Regarding `COC(=O)C1=C(C)NC(C)=C([N+](=O)[O-])C1c1ccccc1C(F)(F)F` (stereo not drawn) [BayK-8644], the “effect on action potential duration (APD)” value is reported as “clear AP prolongation”, the “effect on action potential duration / repolarization” value is recorded as “not uniformly observed” and the “effect on spontaneous activity” value is recorded as “termination of spontaneous full scale AP activity”. Besides, for the setting “listed as BayK8644”, the “effect on action potential duration (APD)” value is “APD is prolonged”, the “effect on action potential duration / repolarization” value is “severely shortened repolarization” and the “effect on spontaneous activity” value is “terminated spontaneous activity”. The “arrhythmogenic phenomenon of alternans” value (with IK1,synthetic) is recorded as “alternans is observed”. Also, for the setting “with IK1,synthetic expression”, the “Ratio of APD90 with/without BayK8644” value is listed as “major increase in APD”. Under “without IK1,synthetic expression”, the “Ratio of APD90 with/without BayK8644” value was “anomalous decrease in APD90”.

These data come from US10294470B2, “Electronic expression of the inward rectifier in cardiocytes derived from human induced pluripotent stem cells” (The Research Foundation for The State University of New York, priority 2013, dated 2019).
